ChEMBL document CHEMBL1201862, “PubChem BioAssay data set” (2004)
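Where inhibition never reached the appropriate level, the endpoint shown equals the highest concentration tested. Otherwise, values were interpolated linearly from a five-concentration, 48-hour dose response in 96-well plates. At the GI50, growth is halved.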 Calls of active or inactive are those of the source. Cut-off read from the data, not from the text of the source: active = GI50 up to about 1.1 µM and inactive = higher.

How the values were obtained:
Assay in all cases: NCI anticancer screen, dose series, 48 h
LOX IMVI = system: LOX IMVI
NCI-H226 = system: NCI-H226
SF-268 = system: SF-268
CCRF-CEM = system: CCRF-CEM
OVCAR-4 = system: OVCAR-4
EKVX = system: EKVX
HL-60 = system: HL-60
TK-10 = system: TK-10
Hs-578T = system: Hs-578T
UO-31 = system: UO-31
RPMI-8226 = system: RPMI-8226
SN12C = system: SN12C
UACC-62 = system: UACC-62
HT-29 = system: HT-29
CAKI-1 = system: CAKI-1
MCF7 = system: MCF7
SF-295 = system: SF-295
T47D = system: T47D
HCC 2998 = system: HCC 2998

Measured: GI50

O=C(O)CNC(=O)c1ccc([As](=O)(O)O)cc1
inactive: LOX IMVI > 100 µM | NCI-H226 > 100 µM | SF-268 > 100 µM | CCRF-CEM > 100 µM | OVCAR-4 > 100 µM | EKVX > 100 µM | HL-60 > 100 µM | TK-10 > 100 µM | Hs-578T > 100 µM | UO-31 > 100 µM | RPMI-8226 > 100 µM | SN12C > 100 µM | UACC-62 > 100 µM | HT-29 > 100 µM | CAKI-1 > 100 µM | MCF7 > 100 µM | SF-295 > 100 µM | T47D > 100 µM

COc1ccc(/C=C/c2nccc3ccccc23)cc1OC
inactive: LOX IMVI 4.57 µM | NCI-H226 > 10 µM | SF-268 > 10 µM | CCRF-CEM 6.52 µM | OVCAR-4 > 10 µM | EKVX > 10 µM | HL-60 > 10 µM | TK-10 > 10 µM | Hs-578T > 10 µM | HCC 2998 > 10 µM | RPMI-8226 5.98 µM | SN12C 9.48 µM | UACC-62 > 10 µM | HT-29 4.05 µM | CAKI-1 > 10 µM | MCF7 2.43 µM | SF-295 > 10 µM | T47D > 10 µM

CC1OC23CCCCC2C(C#N)(C#N)C1(C#N)C(=N)O3 (configuration not stated)
inactive: LOX IMVI 17.6 µM | NCI-H226 > 100 µM | SF-268 24.7 µM | CCRF-CEM 5.94 µM | EKVX 28.6 µM | HL-60 4.21 µM | TK-10 22.5 µM | Hs-578T 21.8 µM | HCC 2998 25.5 µM | UO-31 > 10 µM | SN12C 15.3 µM | UACC-62 > 10 µM | HT-29 27.1 µM | CAKI-1 6.9 µM | MCF7 20.7 µM | SF-295 70 µM | T47D 18.7 µM

CCOC(=O)Cc1csc(N/N=C2\C(=O)Nc3ccccc32)n1
inactive: LOX IMVI 48.8 µM | NCI-H226 30.2 µM | SF-268 66.8 µM | CCRF-CEM 28.4 µM | OVCAR-4 56.9 µM | EKVX 32.1 µM | HL-60 19.7 µM | TK-10 > 100 µM | Hs-578T 56.1 µM | HCC 2998 59 µM | UO-31 27.3 µM | RPMI-8226 36.5 µM | SN12C > 100 µM | UACC-62 42.2 µM | HT-29 42.6 µM | CAKI-1 32.5 µM | MCF7 33.1 µM | SF-295 38.7 µM | T47D 27.7 µM

CCOC1OC(CO)C(O)CC1n1ccc(=O)[nH]c1=O (configuration not stated)
inactive: LOX IMVI > 100 µM | NCI-H226 > 100 µM | SF-268 > 100 µM | OVCAR-4 > 100 µM | EKVX > 100 µM | TK-10 > 100 µM | Hs-578T > 100 µM | HCC 2998 > 100 µM | UO-31 > 100 µM | RPMI-8226 > 100 µM | SN12C > 100 µM | UACC-62 > 100 µM | HT-29 > 100 µM | CAKI-1 > 100 µM | MCF7 > 100 µM | SF-295 > 100 µM | T47D > 100 µM

O=C(C1OC1c1ccc(Br)cc1O)C12CC3CC(CC(C3)C1)C2 (configuration not stated)
inactive: LOX IMVI 14.6 µM | NCI-H226 28.5 µM | SF-268 31.7 µM | CCRF-CEM 23.5 µM | OVCAR-4 26.2 µM | EKVX > 100 µM | HL-60 16.9 µM | TK-10 33.9 µM | Hs-578T 15.7 µM | HCC 2998 21.4 µM | UO-31 13.2 µM | RPMI-8226 17.8 µM | SN12C 15.6 µM | UACC-62 15.5 µM | HT-29 28.8 µM | MCF7 22.3 µM | SF-295 17.9 µM | T47D 40.8 µM

C=CCCCCOC1C=CC(O)C(CO)O1 (configuration not stated)
inactive: LOX IMVI > 100 µM | NCI-H226 > 100 µM | SF-268 > 100 µM | CCRF-CEM > 100 µM | OVCAR-4 > 100 µM | EKVX > 100 µM | HL-60 > 100 µM | TK-10 > 100 µM | Hs-578T 30.1 µM | HCC 2998 > 100 µM | UO-31 > 100 µM | RPMI-8226 > 100 µM | SN12C > 100 µM | UACC-62 > 100 µM | HT-29 > 100 µM | CAKI-1 > 100 µM | MCF7 > 100 µM | SF-295 > 100 µM | T47D > 100 µM

COC(=O)CCCc1ccc2c(c1)CC1(Cc3ccccc3C1)C2
inactive: LOX IMVI 40.3 µM | NCI-H226 > 100 µM | CCRF-CEM 29.6 µM | OVCAR-4 63 µM | EKVX > 100 µM | TK-10 > 100 µM | Hs-578T > 100 µM | HCC 2998 70.1 µM | UO-31 86.1 µM | RPMI-8226 28.4 µM | SN12C 88.5 µM | UACC-62 > 100 µM | HT-29 31 µM | MCF7 53.6 µM | SF-295 > 100 µM | T47D > 100 µM
